Values quoted from earlier work as cited in PMC10468453, “First-in-human study of a novel cell death tracer [^99mTc]Tc-Duramycin: safety, biodistribution and radiation dosimetry in healthy volunteers” (EJNMMI Radiopharmacy and Chemistry, 2023).

Conditions: humans; ref Challapalli et al. [2013]; Doss et al. [2013]; Hoglund et al. [2011]; Kemerink et al. [2003]; Quinn et al. [2016]
Description: We determined the mean effective dose of [^99mTc]Tc-Duramycin as 7.6 µSv/MBq, corresponding to a total effective dose of 3.60 mSv for a patient dose of 473 MBq.
In the case of O=C[C@H]([18F])[C@@H](O)[C@H](O)[C@H](O)CO [[^18F]FDG, 2-[^18F]fluoro-2-deoxy-D-glucose], the Effective dose is given as 9.0 mSv. For O=C1C(=O)N(Cc2cn(CC[18F])nn2)c2ccc(S(=O)(=O)N3CCCC3COc3ccc(F)cc3F)cc21 (stereo not drawn) [[^18F]ICMT-11], the Effective dose is given as 12.5 mSv. In the case of “[^99mTc]HYNIC-annexin V: radiolabeled annexin V, a phosphatidylserine-binding protein”, the Effective dose is listed as 5.5 mSv.
